# Experimental data published in US7579356B2, “Thia-tetraazaacenaphthylene kinase inhibitors” (Janssen Pharmaceutica NV, priority 2005, dated 2009).
# Target: T1, HER-4 (Homo sapiens, UniProt Q15303)
# T1 construct: His6 with thrombin site (N); purchased Proqinase (Freiburg, Germany)
# Assay: HER-4 Kinase Assay
# Type: biochemical
# Conditions: not given
# Procedure: The HER-4 kinase used was purified at Proqinase (Freiburg, Germany) from a construct that consisted of a fusion of GST (Glutathione-S-Transferase), HIS6-Thrombin and the nucleotides encoding amino acids 676 to 1307 of HER-4 (Accession NM 005235).
# A mixture of a 10× kinase reaction buffer (600 mM Hepes at pH 7.5, 30 mM Magnesium Chloride, 0.03 mM Sodium Vanadate and 500 μg/mL PEG 20,000), DTT (1.2 mM final from a 10 mM) stock), ATP (1 μM from a 10 mM stock), biotinylated polyGluTyr (1.5 ng/μL final from stock of 1 μg/μL) prepared by Upstate Biotechnologies, Lake Placid, N.Y.), Manganese Chloride (3 mM final from a 1 M stock), γ-^33P-ATP (10 μCl/mL stock) and water (70 μL/well) was added to each well of a Streptavidin Flashplate (Cat. # SMP103, NEN, Boston, Mass.).
# Test compound stock (1 μL) was added to the appropriate wells. Diluted GST HER-4 kinase (6.7 ng/μL diluted into 50 mM Tris-HCl at pH 8.0 and 0.1% bovine serum albumin) (30 μL) was added (total volume of 200 ng/well) to initiate the reactions.
# The reaction plates were incubated at 30° C. for 1 hr. The reaction was terminated by aspirating the reaction mixture from the plate wells and washing the wells three times with a 1×PBS stop buffer (300 μL) and 100 mM EDTA. After the final wash, the same stop buffer (200 μL) was again added to the wells. The plates were then sealed and read on the TopCount scintillation counter.
# For a series of test concentrations, the IC50 was derived by graphing percent inhibition against the log of the concentrations tested for a given compound.
# T1 sequence (Q15303 676-1307): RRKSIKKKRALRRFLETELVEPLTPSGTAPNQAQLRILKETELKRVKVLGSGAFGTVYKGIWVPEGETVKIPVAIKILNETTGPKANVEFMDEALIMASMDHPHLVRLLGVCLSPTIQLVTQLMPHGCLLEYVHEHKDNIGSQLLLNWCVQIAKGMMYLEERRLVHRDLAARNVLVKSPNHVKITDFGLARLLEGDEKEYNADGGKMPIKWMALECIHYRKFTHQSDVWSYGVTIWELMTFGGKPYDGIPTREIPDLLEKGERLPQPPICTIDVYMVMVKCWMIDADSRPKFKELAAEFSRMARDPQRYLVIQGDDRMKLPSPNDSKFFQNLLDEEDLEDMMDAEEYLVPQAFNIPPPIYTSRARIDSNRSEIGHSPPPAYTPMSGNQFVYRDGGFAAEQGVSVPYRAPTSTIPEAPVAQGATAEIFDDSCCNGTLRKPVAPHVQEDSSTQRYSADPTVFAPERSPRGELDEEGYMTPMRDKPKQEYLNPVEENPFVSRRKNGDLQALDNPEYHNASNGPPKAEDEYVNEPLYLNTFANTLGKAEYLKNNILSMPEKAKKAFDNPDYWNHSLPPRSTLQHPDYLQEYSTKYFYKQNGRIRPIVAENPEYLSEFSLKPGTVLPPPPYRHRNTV
row,IC50 [nM],SMILES
1,81,"CN1CCN(Cc2ccc(NC(=O)c3sc4ncnc5c4c3NC(=O)N5c3ccc(Oc4ccccc4)cc3)cc2)CC1 [Cpd 98, 4-oxo-5-(4-phenoxy-phenyl)-4,5-dihydro-3H-1-thia-3,5,6,8-tetraaza-acenaphthylene-2-carboxylic acid [4-(4-methyl-piperazin-1-ylmethyl)-phenyl]-amide]"
2,30,"O=C(Nc1ccc(CN2CCCCC2)cc1)c1sc2ncnc3c2c1NC(=O)N3c1ccc(Sc2ccccc2)cc1 [Cpd 169, 4-oxo-5-(4-phenylsulfanyl-phenyl)-4,5-dihydro-3H-1-thia-3,5,6,8-tetraaza-acenaphthylene-2-carboxylic acid (4-piperidin-1-ylmethyl-phenyl)-amide]"
3,126,"O=C(Nc1ccc(CN2CCOCC2)cc1)c1sc2ncnc3c2c1NC(=O)N3c1ccc(Sc2ccccc2)cc1 [Cpd 178, 4-oxo-5-(4-phenylsulfanyl-phenyl)-4,5-dihydro-3H-1-thia-3,5,6,8-tetraaza-acenaphthylene-2-carboxylic acid (4-morpholin-4-ylmethyl-phenyl)-amide]"

# Second part, the compound before the results:
row,SMILES,IC50 [nM]
1,"O=C(Nc1ccc(CN2CCCCC2)cc1)c1sc2ncnc3c2c1NC(=O)N3c1ccc(Oc2ccccc2)cc1 [Cpd 96, 4-oxo-5-(4-phenoxy-phenyl)-4,5-dihydro-3H-1-thia-3,5,6,8-tetraaza-acenaphthylene-2-carboxylic acid (4-piperidin-1-ylmethyl-phenyl)-amide]",18
2,"O=C(Nc1ccc(CN2CCOCC2)cc1)c1sc2ncnc3c2c1NC(=O)N3c1ccc(Oc2ccccc2)cc1 [Cpd 97, 4-oxo-5-(4-phenoxy-phenyl)-4,5-dihydro-3H-1-thia-3,5,6,8-tetraaza-acenaphthylene-2-carboxylic acid (4-morpholin-4-ylmethyl-phenyl)-amide]",99

# Tested on: Human epidermoid A431 carcinoma
# Assay: In Vivo Models - Inhibition of Tumor Growth, A431
# Conditions: 100 mg/kg, oral daily for 30 days, athymic mice
# Procedure: In Vivo Models—Inhibition of Tumor Growth
# The ability of test compounds to inhibit unregulated growth of human tumor cells in vivo was evaluated by implanting human tumor cells into the hindflank of athymic mice, administering a test compound and then quantifying any change in tumor size.
# Human epidermoid A431 carcinoma, N87 cells and BT474 cells were implanted subcutaneously into the hindflank of female athymic mice (Charles River) and allowed to grow for 6-10 days. After a measurable tumor was established (as determined by baseline caliper measurement), the animal was administered an oral dose of the test compound daily for a period of 30 days. Tumor size was measured every five days and the degree of inhibition was determined by comparing drug-treated animals to vehicle-treated animals.
# Variations of this method are intended to include intraperitoneal injection or intravenous infusion as the route of administration and administration of the test compound either alone or in a combination therapy.
# The inhibition of tumor growth values are shown in Table 8 at various test concentrations, as indicated. For compounds with multiple values at one test concentration, each value represents a separate assay result.
row,SMILES,percent inhibition A431 [%]
1,"O=C(Nc1ccc(CN2CCCCC2)cc1)c1sc2ncnc3c2c1NC(=O)N3c1ccc(Sc2ccccc2)cc1 [Cpd 169, 4-oxo-5-(4-phenylsulfanyl-phenyl)-4,5-dihydro-3H-1-thia-3,5,6,8-tetraaza-acenaphthylene-2-carboxylic acid (4-piperidin-1-ylmethyl-phenyl)-amide]",55.4
